We go through two compounds from patent publication US6492367B1, “Sulfamato hydroxamic acid metalloprotease inhibitor” (G. D. Searle & Company, priority 1999, dated 2002).

Bounds are passed on as bounds.

Data set [1] deals with advanced, rapidly progressive, treatment-refractory solid tumor cancers (colorectal, pancreatic, ovarian, prostate). The settings on record: cited from earlier work.
For a further data set, the target named is recombinant human MMP-13 (Homo sapiens, UniProt P45452). Description: In vitro metalloprotease inhibition, fluorogenic MCA peptide substrate. Type of data set: biochemical. The following applies: Inhibition Table; room temperature, pH 7.5, 4 μM substrate. The procedure:
The compounds prepared in the manner described in the Examples above were assayed for activity by an in vitro assay. Following the procedures of Knight et al., FEDS Lett. 296(3):263 (1992).
More specifically, recombinant human MMP-13 and MMP-1 enzymes were prepared in laboratories of the assignee following usual laboratory procedures. MMP-13 from a full length cDNA clone was expressed as a proenzyme using a baculovirus as discussed in V.A. Luckow, insect Cell Expression Technology, pages 183-218, in Protein Engineering: Principles and Practice, J. L. Cleland et al eds., Wiley-Liss, Inc., (1996). […]
In the absence of inhibitor activity, a fluorogenic peptide was cleaved at the gly-leu peptide bond, separating the highly fluorogenic peptide from a 2,4-dinitrophenyl quencher, resulting in an increase of fluorescence intensity (excitation at 328 nm/emission at 415 nm). Inhibition was measured as a reduction in fluorescent intensity as a function of inhibitor concentration, using a Perkin Elmer L550 plate reader. The IC50 values were calculated from those values. […]

The target in the next data set is T1, recombinant human MMP-1 (Homo sapiens, UniProt P03956).
T1 sequence (P03956 100-469): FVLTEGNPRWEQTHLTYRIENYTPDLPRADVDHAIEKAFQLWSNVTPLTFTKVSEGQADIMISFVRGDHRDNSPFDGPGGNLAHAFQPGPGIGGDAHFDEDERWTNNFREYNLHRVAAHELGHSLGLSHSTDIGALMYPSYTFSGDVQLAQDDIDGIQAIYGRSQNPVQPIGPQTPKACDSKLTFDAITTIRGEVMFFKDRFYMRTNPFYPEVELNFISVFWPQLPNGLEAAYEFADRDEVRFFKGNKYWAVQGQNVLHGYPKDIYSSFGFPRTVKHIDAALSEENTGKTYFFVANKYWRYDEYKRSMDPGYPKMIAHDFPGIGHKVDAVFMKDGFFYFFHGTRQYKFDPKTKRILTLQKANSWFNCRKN
Described as above. The following applies: Inhibition Table; room temperature, pH 7.5, 4 μM substrate.

The target of a further data set is T2, MMP-2 (Homo sapiens, UniProt P08253).
T2 sequence (P08253 110-660): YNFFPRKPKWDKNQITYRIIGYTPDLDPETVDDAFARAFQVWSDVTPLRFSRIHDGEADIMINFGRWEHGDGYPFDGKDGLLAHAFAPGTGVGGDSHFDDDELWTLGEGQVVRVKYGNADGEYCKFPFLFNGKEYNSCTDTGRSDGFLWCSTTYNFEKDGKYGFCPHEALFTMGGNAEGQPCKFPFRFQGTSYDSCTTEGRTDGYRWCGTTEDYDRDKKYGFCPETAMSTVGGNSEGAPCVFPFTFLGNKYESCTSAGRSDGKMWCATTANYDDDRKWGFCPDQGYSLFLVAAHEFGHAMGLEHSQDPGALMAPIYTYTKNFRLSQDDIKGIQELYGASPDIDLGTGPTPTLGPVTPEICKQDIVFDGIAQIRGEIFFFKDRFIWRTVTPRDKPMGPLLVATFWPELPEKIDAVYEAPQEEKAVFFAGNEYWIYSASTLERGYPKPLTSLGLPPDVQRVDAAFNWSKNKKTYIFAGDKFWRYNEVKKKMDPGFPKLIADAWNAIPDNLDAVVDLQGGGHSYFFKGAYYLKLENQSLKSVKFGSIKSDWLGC
The description is as above. The following applies: Inhibition Table; room temperature, pH 7.5, 4 μM substrate.

Description for MMP-2: The enzyme substrate is a methoxycoumarin-containing polypeptide having the following sequence:
MCA-ProLeuGlyLeuDpaAlaArgNH2, wherein MCA is methoxycoumarin and Dpa is 3-(2,4-dinitrophenyl)-L-2,3-diaminopropionyl alanine.
Assays were carried out at room temperature, and dimethyl sulfoxide (DMSO) at a final concentration of 1 percent was used to dissolve inhibitor compound.
The assayed inhibitor compound in DMSO/buffer solution was compared to an equal amount of DMSO/buffer with no inhibitor as control using Microfluor T White Plates (Dynatech). The inhibitor or control solution was maintained in the plate for minutes and the substrate was added to provide a final concentration of 4 μM.

`CNC(=O)[C@@H](NC(=O)[C@H](CC(C)C)[C@H](O)C(=O)NO)C(C)(C)C` [marimastat, Marimastat]: the “most common drug-related toxicity” value in data set [1] (Phase I/II clinical trials) is “musculoskeletal pain and stiffness”. Besides, the “cancer-specific antigens used as surrogate markers for biological activity” value in data set [1] (Phase I/II studies, patients with advanced solid tumor cancers) is recorded as “dose-related reduction in the rise of cancer-specific antigens”.

In the case of “4-[[4-[[(3R,5R)-rel-3,5-Dimethyl-1-piperidinyl]carbonyl]-1-piperidinyl]sulfonyl]tetrahydro-N-hydroxy-2H-pyran-4-carboxamide and 4-[[4-[[(3R,5S)-rel-3,5-dimethyl-1-piperidinyl]carbonyl]-1-piperidinyl]sulfonyl]tetrahydro-N-hydroxy-2H-pyran-4-carboxamide [Example 49]”, at recombinant human MMP-13, the “ED50 MMP-13” value is <10,000 nM. Besides, at recombinant human MMP-1, the “ED50 MMP-1” value was <10,000 nM. Also, at MMP-2, the “ED50 MMP-2” value is given as <10,000 nM.
